22 compounds from ChEMBL document CHEMBL1137694, “Predicting anti-HIV activity of 1,3,4-thiazolidinone derivatives: 3D-QSAR approach” (Eur J Med Chem, 2009) can be followed below.

The assay relates to Human immunodeficiency virus. Put plainly: Antiviral activity against HIV assessed as reduction in virus-induced cytopathic effect by XTT assay. Conditions: Human immunodeficiency virus 1, read-out: pEC50 (converted). It is filed as functional, organism-based. Background: Damage to the host cells serves as the signal in cytopathic effect assays.

As to `COc1cc(C)nc(N2C(=O)CSC2c2c(Cl)cccc2Cl)n1` (configuration not stated), the EC50 was 23.9 nM.
`COC1CCC1N1C(=O)CSC1c1c(F)cccc1F` (configuration not stated): the EC50 was 84.6 nM.
Regarding `COc1cc(C)nc(N2C(=O)CSC2c2c(F)cccc2Cl)n1` (configuration not stated), the EC50 is 55.9 nM.
The result for `COc1cccc(F)c1C1SCC(=O)N1c1cc(Br)ccn1` (configuration not stated) reads 33.9 nM.
On to `Cc1cccc(N2C(=O)CSC2c2c(F)cccc2F)n1` (configuration not stated), for which the EC50 was 81.9 nM.
Turning to `CC1CCC1N1C(=O)CSC1c1c(Cl)cccc1Cl` (configuration not stated), the EC50 is 79.8 nM.
Next, `CC1CC(C)C1N1C(=O)CSC1c1c(F)cccc1Cl` (configuration not stated): 85.7 nM.
Next, `O=C1CSC(c2c(F)cccc2F)N1c1cccnc1` (configuration not stated): 10.5 nM.
Next, `Cc1cc(C)nc(N2C(=O)CSC2c2c(F)cccc2F)c1` (configuration not stated): 58.9 nM.
`Cc1cccnc1N1C(=O)CSC1c1c(F)cccc1F` (configuration not stated): the EC50 is 18.7 nM.
The result for `COc1cccc(OC)c1C1SCC(=O)N1c1cc(C)ccn1` (configuration not stated) reads 49.9 nM; that for `Cc1ccnc(N2C(=O)CSC2c2c(Cl)cccc2Cl)n1` (configuration not stated), 43.9 nM.
As to `COc1cccc(OC)c1C1SCC(=O)N1c1cc(Br)ccn1` (configuration not stated), the EC50 is 44.9 nM.
The result for `O=C1CSC(c2c(F)cccc2F)N1c1cccc(Br)n1` (configuration not stated) reads 29.9 nM.
Regarding `Cc1cc(O)nc(N2C(=O)CSC2c2c(Cl)cccc2Cl)n1` (configuration not stated), the EC50 is 30.4 nM.
The result for `Cc1cc(Cl)nc(N2C(=O)CSC2c2c(Cl)cccc2Cl)n1` (configuration not stated) reads 19.3 nM; that for `Cc1cccc(N2C(=O)CSC2c2c(Cl)cccc2Cl)n1` (configuration not stated), 43.9 nM.
Consider `Cc1cc(C)nc(N2C(=O)CSC2c2c(Cl)cccc2Cl)c1` (configuration not stated), for which the EC50 was 89.8 nM.
The result for `Cc1cc(C)nc(N2C(=O)CSC2c2c(F)cccc2Cl)n1` (configuration not stated) reads 37.9 nM; that for `O=C1CSC(c2c(F)cccc2Cl)N1c1cccc(Br)n1` (configuration not stated), 63.9 nM.
As for `Cc1cc(C)nc(N2C(=O)CSC2c2c(Cl)cccc2Cl)n1` (configuration not stated), the EC50 is 17 nM.
Consider `Cc1cccc(N2C(=S)CSC2c2c(Cl)cccc2Cl)n1` (configuration not stated), for which the EC50 is 86.9 nM.
